Laboratory results: ChEMBL document CHEMBL3769405, “Discovery of Potent and Selective Inhibitors of Phosphodiesterase 1 for the Treatment of Cognitive Impairment Associated with Neurodegenerative and Neuropsychiatric Diseases” (J Med Chem, 2016)
≈ marks a conversion by molar mass, not a printed value.

Legend:
[1] = AUClast in C57BL/6 mouse plasma at 10 mg/kg administered through oral gavage; assay type: ADME, organism-based; set-up: dose 10 mg/kg, time 0 - last, route oral
[2] = Lipophilicity, logD of compound at pH 1.7; assay type: physicochemical; details: buffer
[3] = Inhibition of bovine retinal PDE6 using fluorescent labeled cGMP as substrate after 15 mins by IMAP assay
[4] = molecular target: cGMP-dependent 3',5'-cyclic phosphodiesterase (Homo sapiens, UniProt O00408); experiment: Inhibition of recombinant full length human PDE2A using fluorescent labeled cAMP as substrate after 15 mins by IMAP assay
[5] = Lipophilicity, logD of compound at pH 7.4; assay type: physicochemical; details: buffer
[6] = molecular target: High affinity cAMP-specific and IBMX-insensitive 3',5'-cyclic phosphodiesterase 8A (Homo sapiens, UniProt O60658); experiment: Inhibition of recombinant full lenght human PDE8A using fluorescent labeled cAMP as substrate after 15 mins by IMAP assay
Sequence of High affinity cAMP-specific and IBMX-insensitive 3',5'-cyclic phosphodiesterase 8A (O60658 whole entry): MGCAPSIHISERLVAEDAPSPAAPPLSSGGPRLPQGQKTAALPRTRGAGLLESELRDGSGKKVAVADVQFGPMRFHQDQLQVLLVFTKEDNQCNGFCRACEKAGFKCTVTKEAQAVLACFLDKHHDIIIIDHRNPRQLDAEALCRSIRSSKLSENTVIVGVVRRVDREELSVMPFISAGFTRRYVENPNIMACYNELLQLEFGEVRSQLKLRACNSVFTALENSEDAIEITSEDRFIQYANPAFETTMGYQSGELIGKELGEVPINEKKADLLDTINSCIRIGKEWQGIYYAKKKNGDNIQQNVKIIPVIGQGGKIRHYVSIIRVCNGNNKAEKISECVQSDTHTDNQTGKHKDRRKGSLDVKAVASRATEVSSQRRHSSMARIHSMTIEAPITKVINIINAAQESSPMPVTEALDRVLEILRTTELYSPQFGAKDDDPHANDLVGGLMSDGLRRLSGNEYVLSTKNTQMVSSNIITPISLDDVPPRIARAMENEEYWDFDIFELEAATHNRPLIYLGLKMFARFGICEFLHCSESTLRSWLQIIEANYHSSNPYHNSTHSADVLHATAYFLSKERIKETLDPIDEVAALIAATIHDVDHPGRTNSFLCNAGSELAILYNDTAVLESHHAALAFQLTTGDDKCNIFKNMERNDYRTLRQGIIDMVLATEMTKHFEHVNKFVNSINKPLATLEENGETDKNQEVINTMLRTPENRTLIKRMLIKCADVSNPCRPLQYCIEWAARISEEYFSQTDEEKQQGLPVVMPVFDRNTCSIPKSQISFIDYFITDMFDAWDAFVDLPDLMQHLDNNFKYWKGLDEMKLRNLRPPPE

[7] = Cmax in Sprague-Dawley rat at 9.75 mg/kg administered through oral gavage; assay type: ADME, organism-based; set-up: dose 9.75 mg/kg, route oral; details: in vivo
[8] = Half time in Sprague-Dawley rat at 1 mg/kg, iv; assay type: ADME, organism-based; details: in vivo
[9] = Clearance in Sprague-Dawley rat at 1 mg/kg, iv; assay type: ADME, organism-based; details: in vivo
[10] = Volume of distribution in Sprague-Dawley rat at 1 mg/kg, iv; assay type: ADME, organism-based; details: in vivo
[11] = Half time in Sprague-Dawley rat at 9.75 mg/kg administered through oral gavage; assay type: ADME, organism-based; details: in vivo
[12] = molecular target: cGMP-specific 3',5'-cyclic phosphodiesterase (Homo sapiens, UniProt O76074); experiment: Inhibition of recombinant full lenght human PDE5A using fluorescent labeled cGMP as substrate after 15 mins by IMAP assay
[13] = Tmax in Sprague-Dawley rat at 9.75 mg/kg administered through oral gavage; assay type: ADME, organism-based; details: in vivo
[14] = Inhibition of bovine brain PDE1 using fluorescent labeled cGMP as substrate after 15 mins by IMAP assay; set-up: species or system Bos taurus
[15] = molecular target: cGMP-inhibited 3',5'-cyclic phosphodiesterase 3B (Homo sapiens, UniProt Q13370); experiment: Inhibition of recombinant full length human PDE3B using fluorescent labeled cAMP as substrate after 15 mins by IMAP assay
Sequence of cGMP-inhibited 3',5'-cyclic phosphodiesterase 3B (Q13370 whole entry): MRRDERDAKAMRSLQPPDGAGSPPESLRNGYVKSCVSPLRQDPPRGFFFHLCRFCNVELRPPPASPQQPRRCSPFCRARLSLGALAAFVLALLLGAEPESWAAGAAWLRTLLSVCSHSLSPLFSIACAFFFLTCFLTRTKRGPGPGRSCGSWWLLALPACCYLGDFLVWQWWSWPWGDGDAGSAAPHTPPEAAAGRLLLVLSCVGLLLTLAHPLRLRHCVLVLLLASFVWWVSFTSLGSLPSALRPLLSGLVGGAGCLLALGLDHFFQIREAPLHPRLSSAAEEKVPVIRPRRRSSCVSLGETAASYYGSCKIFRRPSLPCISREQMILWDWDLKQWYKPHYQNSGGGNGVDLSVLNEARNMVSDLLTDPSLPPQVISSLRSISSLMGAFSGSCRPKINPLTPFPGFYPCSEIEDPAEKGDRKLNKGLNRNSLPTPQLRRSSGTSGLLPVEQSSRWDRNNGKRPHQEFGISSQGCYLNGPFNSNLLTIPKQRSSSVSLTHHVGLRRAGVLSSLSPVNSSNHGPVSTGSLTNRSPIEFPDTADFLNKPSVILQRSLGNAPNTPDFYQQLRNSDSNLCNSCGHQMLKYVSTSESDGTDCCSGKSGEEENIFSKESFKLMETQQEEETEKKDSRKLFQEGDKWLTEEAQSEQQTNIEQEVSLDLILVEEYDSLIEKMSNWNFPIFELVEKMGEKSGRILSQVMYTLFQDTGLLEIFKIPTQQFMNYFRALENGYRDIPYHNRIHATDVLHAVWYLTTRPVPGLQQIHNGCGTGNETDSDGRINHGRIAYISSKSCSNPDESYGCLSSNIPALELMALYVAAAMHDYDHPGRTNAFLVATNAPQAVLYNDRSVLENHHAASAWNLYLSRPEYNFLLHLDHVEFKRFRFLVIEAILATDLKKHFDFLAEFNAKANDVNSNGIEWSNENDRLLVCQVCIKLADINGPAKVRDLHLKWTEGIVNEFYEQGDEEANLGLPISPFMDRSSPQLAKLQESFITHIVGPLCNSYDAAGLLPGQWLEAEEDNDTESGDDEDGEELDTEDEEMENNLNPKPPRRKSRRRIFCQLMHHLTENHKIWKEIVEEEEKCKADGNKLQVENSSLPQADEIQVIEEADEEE

[16] = Solubility of compound in PBS; assay type: physicochemical
[17] = Cmax in C57BL/6 mouse brain at 10 mg/kg administered through oral gavage; assay type: ADME, organism-based; set-up: dose 10 mg/kg, route oral
[18] = molecular target: High affinity cGMP-specific 3',5'-cyclic phosphodiesterase 9A (Homo sapiens, UniProt O76083); experiment: Inhibition of recombinant full lenght human PDE9A using fluorescent labeled cGMP as substrate after 15 mins by IMAP assay
Sequence of High affinity cGMP-specific 3',5'-cyclic phosphodiesterase 9A (O76083 whole entry): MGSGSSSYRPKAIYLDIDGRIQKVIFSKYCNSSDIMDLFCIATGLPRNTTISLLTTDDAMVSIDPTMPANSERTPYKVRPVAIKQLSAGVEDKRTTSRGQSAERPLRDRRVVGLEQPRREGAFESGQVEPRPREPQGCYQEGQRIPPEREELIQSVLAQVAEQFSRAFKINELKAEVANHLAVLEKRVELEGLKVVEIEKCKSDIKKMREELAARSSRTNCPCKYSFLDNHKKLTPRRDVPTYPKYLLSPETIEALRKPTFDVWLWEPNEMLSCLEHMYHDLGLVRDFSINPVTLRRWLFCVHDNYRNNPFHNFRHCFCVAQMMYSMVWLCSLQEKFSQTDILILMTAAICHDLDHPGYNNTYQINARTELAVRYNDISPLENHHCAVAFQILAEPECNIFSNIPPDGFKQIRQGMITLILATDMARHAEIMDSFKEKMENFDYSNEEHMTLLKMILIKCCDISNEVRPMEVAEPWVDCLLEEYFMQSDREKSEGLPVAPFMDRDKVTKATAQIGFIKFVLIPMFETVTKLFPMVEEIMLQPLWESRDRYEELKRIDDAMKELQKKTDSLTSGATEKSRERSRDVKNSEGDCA

[19] = molecular target: 3',5'-cyclic-AMP phosphodiesterase 7B (Homo sapiens, UniProt Q9NP56); experiment: Inhibition of recombinant full lenght human PDE7B using fluorescent labeled cAMP as substrate after 15 mins by IMAP assay
Sequence of 3',5'-cyclic-AMP phosphodiesterase 7B (Q9NP56 whole entry): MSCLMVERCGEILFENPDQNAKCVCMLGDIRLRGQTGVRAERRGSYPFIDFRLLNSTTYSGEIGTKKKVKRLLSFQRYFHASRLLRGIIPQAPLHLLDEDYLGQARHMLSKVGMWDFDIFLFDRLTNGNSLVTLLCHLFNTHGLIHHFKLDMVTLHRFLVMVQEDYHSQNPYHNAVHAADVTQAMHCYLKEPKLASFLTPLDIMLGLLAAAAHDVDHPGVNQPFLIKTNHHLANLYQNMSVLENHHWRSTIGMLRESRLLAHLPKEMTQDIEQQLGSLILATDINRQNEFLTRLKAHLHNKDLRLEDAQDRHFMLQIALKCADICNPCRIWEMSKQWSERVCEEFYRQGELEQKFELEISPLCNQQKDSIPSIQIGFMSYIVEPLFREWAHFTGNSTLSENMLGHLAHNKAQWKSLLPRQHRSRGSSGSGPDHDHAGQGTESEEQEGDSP

[20] = Oral bioavailability in Sprague-Dawley rat at 9.75 mg/kg administered through gavage; assay type: ADME, organism-based; details: in vivo
[21] = Cmax in C57BL/6 mouse plasma at 10 mg/kg administered through oral gavage; assay type: ADME, organism-based; set-up: dose 10 mg/kg, route oral
[22] = Intrinsic clearance in human liver microsomes; assay type: ADME; details: read-out: CLH
[23] = AUClast in C57BL/6 mouse brain at 10 mg/kg administered through oral gavage; assay type: ADME, organism-based; set-up: dose 10 mg/kg, time 0 - last, route oral
[24] = molecular target: 3',5'-cyclic-AMP phosphodiesterase 4A (Homo sapiens, UniProt P27815); experiment: Inhibition of recombinant full lenght human PDE4A using fluorescent labeled cAMP as substrate after 15 mins by IMAP assay
Sequence of 3',5'-cyclic-AMP phosphodiesterase 4A (P27815 whole entry): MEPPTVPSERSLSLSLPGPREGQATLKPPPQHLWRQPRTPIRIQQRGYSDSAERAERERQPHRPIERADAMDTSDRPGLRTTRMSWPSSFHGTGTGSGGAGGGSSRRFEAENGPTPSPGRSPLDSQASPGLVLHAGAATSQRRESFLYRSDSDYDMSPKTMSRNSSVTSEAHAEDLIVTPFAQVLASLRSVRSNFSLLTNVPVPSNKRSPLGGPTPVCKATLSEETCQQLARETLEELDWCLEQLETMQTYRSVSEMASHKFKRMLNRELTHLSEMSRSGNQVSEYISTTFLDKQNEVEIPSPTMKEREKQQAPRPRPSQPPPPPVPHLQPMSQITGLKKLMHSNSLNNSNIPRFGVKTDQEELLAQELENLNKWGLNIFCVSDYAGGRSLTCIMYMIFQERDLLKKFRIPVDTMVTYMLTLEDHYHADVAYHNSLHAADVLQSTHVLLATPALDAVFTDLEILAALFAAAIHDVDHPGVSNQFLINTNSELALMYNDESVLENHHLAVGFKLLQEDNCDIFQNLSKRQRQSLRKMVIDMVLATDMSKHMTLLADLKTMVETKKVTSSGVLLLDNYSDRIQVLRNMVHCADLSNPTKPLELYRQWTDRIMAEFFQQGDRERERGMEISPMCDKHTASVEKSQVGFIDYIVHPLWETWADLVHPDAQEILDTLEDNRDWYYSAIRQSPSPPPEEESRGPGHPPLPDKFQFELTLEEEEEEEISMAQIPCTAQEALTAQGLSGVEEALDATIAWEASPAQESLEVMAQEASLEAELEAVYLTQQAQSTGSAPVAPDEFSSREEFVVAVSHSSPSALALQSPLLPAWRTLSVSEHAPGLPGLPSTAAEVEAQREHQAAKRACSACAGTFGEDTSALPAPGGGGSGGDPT

[25] = AUC(infinity) in Sprague-Dawley rat at 1 mg/kg, iv; assay type: ADME, organism-based; set-up: dose 1 mg/kg, time infinity, route intravenous; details: in vivo
[26] = molecular target: cAMP and cAMP-inhibited cGMP 3',5'-cyclic phosphodiesterase 10A (Homo sapiens, UniProt Q9Y233); experiment: Inhibition of recombinant full lenght human PDE10A using fluorescent labeled cAMP as substrate after 15 mins by IMAP assay
Sequence of cAMP and cAMP-inhibited cGMP 3',5'-cyclic phosphodiesterase 10A (Q9Y233 whole entry): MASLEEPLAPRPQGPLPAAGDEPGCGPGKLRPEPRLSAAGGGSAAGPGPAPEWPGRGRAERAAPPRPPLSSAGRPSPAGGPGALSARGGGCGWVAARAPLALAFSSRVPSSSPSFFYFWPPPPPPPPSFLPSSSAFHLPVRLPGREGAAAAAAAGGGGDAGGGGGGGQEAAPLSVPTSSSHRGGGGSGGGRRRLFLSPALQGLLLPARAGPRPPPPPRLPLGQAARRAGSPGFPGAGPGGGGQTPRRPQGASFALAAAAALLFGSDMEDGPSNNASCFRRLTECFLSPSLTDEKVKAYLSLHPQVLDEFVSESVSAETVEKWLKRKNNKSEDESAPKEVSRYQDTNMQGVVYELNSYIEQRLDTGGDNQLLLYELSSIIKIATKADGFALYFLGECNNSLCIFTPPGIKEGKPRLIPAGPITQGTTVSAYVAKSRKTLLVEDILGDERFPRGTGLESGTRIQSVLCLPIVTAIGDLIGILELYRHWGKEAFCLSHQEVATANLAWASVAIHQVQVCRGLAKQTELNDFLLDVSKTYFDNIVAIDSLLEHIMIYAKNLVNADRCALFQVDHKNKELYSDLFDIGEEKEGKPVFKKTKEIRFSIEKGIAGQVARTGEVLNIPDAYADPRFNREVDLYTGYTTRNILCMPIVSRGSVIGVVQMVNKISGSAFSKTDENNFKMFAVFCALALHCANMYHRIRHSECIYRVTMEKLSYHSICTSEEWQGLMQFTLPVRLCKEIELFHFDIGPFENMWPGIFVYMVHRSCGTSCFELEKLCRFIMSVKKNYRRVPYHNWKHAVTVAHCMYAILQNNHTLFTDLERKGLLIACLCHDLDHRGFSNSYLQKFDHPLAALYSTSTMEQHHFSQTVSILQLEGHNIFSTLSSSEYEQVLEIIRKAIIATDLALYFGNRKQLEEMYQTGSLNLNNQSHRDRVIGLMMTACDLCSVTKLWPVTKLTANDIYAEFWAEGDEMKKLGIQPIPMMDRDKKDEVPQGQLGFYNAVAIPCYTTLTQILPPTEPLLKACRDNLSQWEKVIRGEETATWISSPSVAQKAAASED

[27] = AUC(infinity) in Sprague-Dawley rat at 9.75 mg/kg administered through oral gavage; assay type: ADME, organism-based; set-up: dose 9.75 mg/kg, route oral, time infinity; details: in vivo
Rattus norvegicus = experiment: Increase in cognitive performance in ip dosed Sprague-Dawley rat after 60 mins by novel object recognition test; assay type: functional; details: 1 h, read-out: MED
in vivo = details: C57BL/6, mouse, brain/plasma
[28] = Selectivity ratio of Ki for recombinant full lenght human PDE4A to bovine brain PDE1

Compound	AUC(0-t) [1] [ng·h/mL]	logD [2]	Ki [3] [nM]	Ki [4] [nM]	logD [5]	Ki [6] [nM]	Cmax [7] [ng/mL]	half-life [8] [h]	clearance [9] [mL/min/kg]	half-life [11] [h]	Ki [12] [nM]	Tmax [13] [h]	Ki [14] [nM]	solubility [16] [µM]	Cmax [17] [ng/mL]	Cmax [21] [ng/mL]	CLint scaled [22] [mL/min/kg]	AUC(0-t) [23] [ng·h/mL]	Ki [24] [nM]	AUC(0-inf) [27] [ng·h/mL]	also measured
CN1C(=O)c2c(nn(Cc3ccc(C(F)(F)F)nc3)c2Nc2ccccc2)N2C1=N[C@@H]1CCC[C@@H]12	–	–	5500	> 100000	–	> 100000	–	–	–	–	1200	–	1.9	–	–	–	–	–	1200	–	Ki [15]: 42000 nM; Ki [18]: > 100000 nM; Ki [19]: 6100 nM; Ki [26]: 19000 nM
CN1C(=O)c2c(nn(Cc3ccc(C(F)(F)F)cc3)c2Nc2ccccc2)N2C1=N[C@@H]1CCC[C@@H]12	122	1.16	1600	39000	4.47	54000	75	1.4	62	1.5	590	0.25	0.88	35 (≈ 16.8 µg/mL)	285	60	139	548	930	214	Vd [10]: 7.44 L/kg; Ki [15]: 30000 nM; Ki [18]: 50000 nM; Ki [19]: 1200 nM; bioavailability [20]: 8%; AUC(0-inf) [25]: 271 ng·h/mL; Ki [26]: 5400 nM
CN1C(=O)c2c(nn(Cc3ccc(-c4cccc(F)n4)cc3)c2Cc2ccc(F)cc2)N2C1=N[C@@H]1CCC[C@@H]12	69	1.42	–	–	> 5	–	–	–	–	–	–	–	2.3	< 1	81	44	81	109	780	–	Kp (in vivo): 1.6; Ratio Ki [28]: 339

The next compounds have a lower Ki [14] than those just listed; values first:

AUC(0-t) [1] [ng·h/mL]	logD [2]	Ki [3] [nM]	Ki [4] [nM]	logD [5]	Ki [6] [nM]	Cmax [7] [ng/mL]	half-life [8] [h]	clearance [9] [mL/min/kg]	half-life [11] [h]	Ki [12] [nM]	Tmax [13] [h]	Ki [14] [nM]	solubility [16] [µM]	Cmax [17] [ng/mL]	Cmax [21] [ng/mL]	CLint scaled [22] [mL/min/kg]	AUC(0-t) [23] [ng·h/mL]	Ki [24] [nM]	AUC(0-inf) [27] [ng·h/mL]	Compound	also measured
65	-0.58	430	24000	3.54	8200	158	0.72	40	1.5	600	0.5	0.085	> 100	28	48	189	21	240	636	CN1C(=O)c2c(nn(Cc3ccc(-c4ccccn4)cc3)c2Nc2ccccc2)N2C1=N[C@@H]1CCC[C@@H]12	Vd [10]: 2.48 L/kg; Ki [15]: 1200 nM; Ki [18]: 6100 nM; Ki [19]: 300 nM; bioavailability [20]: 16%; AUC(0-inf) [25]: 420 ng·h/mL; Ki [26]: 2700 nM
826	1.27	–	–	4.41	–	252	1.4	55	1.5	630	0.75	0.058	22	387	490	78	588	–	802	CN1C(=O)c2c(nn(Cc3ccc(-c4cccc(F)n4)cc3)c2Nc2ccccc2)N2C1=N[C@@H]1CCC[C@@H]12.O=P(O)(O)O [LENRISPODUN PHOSPHATE]	minimal effective dose (Rattus norvegicus): 3 mg/kg; Vd [10]: 6.83 L/kg; bioavailability [20]: 28%; AUC(0-inf) [25]: 300 ng·h/mL
286	1.92	1100	37000	> 5	33000	102	–	–	3.1	1600	4	0.85	2 (≈ 0.977 µg/mL)	474	130	–	542	1300	816	CN1C(=O)c2c(nn(Cc3ccc(-c4ccccc4)cc3)c2Nc2ccccc2)N2C1=N[C@@H]1CCC[C@@H]12	Ki [15]: 1500 nM; Ki [18]: > 100000 nM; Ki [19]: 910 nM; Ki [26]: 7900 nM
24	1.11	–	–	4.57	–	42	1.5	57	2.2	–	0.5	0.63	31 (≈ 15.5 µg/mL)	133	21	73	166	420	164	CN1C(=O)c2c(nn(Cc3ccc(C(F)(F)F)cc3)c2Nc2ccc(F)cc2)N2C1=N[C@@H]1CCC[C@@H]12	Kp (in vivo): 6.9; Vd [10]: 7.48 L/kg; bioavailability [20]: 6%; Ratio Ki [28]: 667; AUC(0-inf) [25]: 292 ng·h/mL
